Reference: patent US9446043B2, “Pharmaceutical combinations” (Novartis AG, priority 2012, dated 2016)

Columns and labels:
[1] = tested on: 92.1 uveal melanoma cell line; assay: Cell proliferation in combination dose matrix (Cell Titer Glo, Chalice); type: cell-based, human; conditions: 92.1 cells; for anti-proliferative response in dose matrix: 0.039 μM to 10 μM; for inhibition at 0.16 µM: Homo sapiens, 0.16 μM of each agent, 144 hours, Cell Titer Glo, read-out: growth inhibition (FIG. 2, top panel)
Method: Cells were seeded at a density of 3000 cells per 100 μl of medium per well in 96-well plates (Costar #3904) and incubated overnight prior to compound addition. Compound stock was freshly prepared in the appropriate culture medium and manually added to the plates by electronic multichannel pipette in three replicates. Cells were treated with compound alone or with a combination of AEB071 and COMPOUND B diluted 1:2 for a ten point dilution ranging from 0.039 μM to 10 μM. The viability of cells was assessed at the time of compound addition and after 144 hours of treatment by quantification of cellular ATP levels via Cell Titer Glo (Promega #G7571) according to the manufacturer's protocol. Plates were read on a luminescence plate reader (Victor X4, Perkin Elmer). Fractional inhibition of growth was calculated using XLfit and normalized to no compound wells. For growth inhibition, day 0 values were subtracted before calculating inhibition. Data was analyzed by Chalice software
(http://chalice.zalicus.com/documentation/analyzer/index.jsp) to calculate growth inhibition, inhibition and HSA excess.
FIG. 2 provides a closer look at the patterns of synergy between the two agents in the 92.1 cell line. The dose matrix between the two agents is shown; the effect on cell growth relative to untreated cells is shown in the top panel, the excess inhibition (HSA) in the center panel and the growth inhibition relative to day zero normalization is shown in the bottom panel. Methods of calculations for growth inhibition, inhibition and HSA excess are known in the art.
Inhibition and excess inhibition values for all dose combinations can be seen in FIG. 2. The growth rate of the cells during the […] assay was taken into account for the calculation of growth inhibition percent shown in FIG. 2, bottom panel. 100% indicated stasis, meaning the cells had neither grown nor died during the course of the assay, values in excess of 100 indicate death, 200 being complete cell death, and values below 100 indication growth from the start of the assay to the day 3 end point.

pMARCKS = assay: Protein immunoblot following drug treatment of uveal melanoma cell lines; type: cell-based, human; conditions: 92.1 and OMM-1 cells, 0.5 μM per agent, 2-48 hours
Method: Uveal melanoma cells were incubated with 0.5 μM AEB071, 0.5 μM COMPOUND B, both compounds or DMSO alone. Cells were lysed after 2, 4, 8, 24 or 48 hours of treatment in M-PER mammalian protein extraction buffer containing PhosStop Phosphatase inhibitor cocktail tablet (Roche Diagnostics #04 906 837 001) and Complete Protease Inhibitor cocktail tablet (Roche Diagnostics #11 836 145 001). Proteins were separated on a 4-12% Bis-Tris NuPAGE SDS gel (Invitrogen #WG1403Bx10) and subsequently transferred to a nitrocellulose membrane using a dry blotting system (Invitrogen iBLOT). Proteins were detected with 1:1000 dilutions of anti-p44/42 MAPK (Cell Signaling Technologies #4377), anti-pMARCKS (Cell Signaling Technologies #2741), anti-pMEK1/2 (Cell Signaling Technologies #9121) and anti-Beta Actin (Ambion#AM4202). Beta actin was detected using the appropriate secondary antibody and an infrared dye detection system (Odyssey IRDye, LI-COR) according to the manufacturer's protocol. All other proteins were detected using an anti-rabbit-HRP secondary antibody and developed with SuperSignal West Dura Chemiluminescent Substrate (Thermo Scientific #34076) on a Syngene imaging system. The biochemical effect of these agents was assessed following treatment with 0.5 μM AEBO071, 0.5 μM COMPOUND B or 0.5 μM of each agent together in the uveal melanoma cell lines 92.1 and OMM-1. […]

[2] = tested on: 92.1 human uveal melanoma xenograft (GNAQ mutation); assay: In vivo activity in the 92.1 human uveal melanoma nude mouse xenograft model
Method: NVP-AEB071 (also referred to as AEB071) (acetate salt, 87.96% free base) powder was added to 20% polyethyleneglycol 400 (PEG400): 4.5% 0.1M HCl: 75.5% of 5% dextrose in water (D5W), designated as Vehicle 1, and stirred to obtain a clear red solution. NVP-COMPOUND B (also referred to as COMPOUND B) was formulated as a homogenous suspension in 1% carboxymethyl cellulose: 0.5% Tween® 80 in deionized water. A fresh suspension was prepared once per week for each compound and stored at 4° C.
The animals were fed ad libitum water (reverse osmosis, 1 ppm Cl) and NIH 31 Modified and Irradiated Lab Diet® consisting of 18.0% crude protein, 5.0% crude fat, and 5.0% crude fiber. The mice were housed on irradiated Enrich-O'Cobs™ Laboratory Animal Bedding in static microisolators on a 12-hour light cycle at 20-22° C. (68-72° F.) and 40-60% humidity. DRS-NC specifically complies with the recommendations of the Guide for Care and Use of Laboratory Animals with respect to restraint, husbandry, surgical procedures, feed and fluid regulation, and veterinary care. The animal program at DRS-NC is accredited by the Association for Assessment and Accreditation of Laboratory Animal Care (AAALAC) International, which assures compliance with accepted standards for the care and use of laboratory animals.
The 92.1 uveal melanoma cells were harvested during exponential growth, and re-suspended in cold PBS (phosphate buffered saline) with 50% Matrigel™ (BD Biosciences). Each mouse was inoculated subcutaneously in the right flank with 5×10^6 cells (0.2 mL of cell suspension). Tumors were calipered in two dimensions to monitor growth as their mean volume approached the desired 100-150 mm^3 range. Tumor size, in mm^3, was calculated from: Tumor Volume=(w^2×l)/2 where w=width and l=length, in mm, of the tumor. Tumor weight could be estimated with the assumption that 1 mg was equivalent to 1 mm^3 of tumor volume. Twelve days after tumor cell implantation, on Day 1 (D1) of the study, animals with individual tumor volumes of 108-256 mm^3 were sorted into six groups (n=10/group) with group mean tumor volumes of 153-159 mm^3.
AEB071 was administered at 91 mg/kg three times daily (TID) dosing for 21 days. Efficacy was determined from tumor growth inhibition on day 17, the last day with all mice on the study. The activity was calculated at tumor/control (T/C), the percent mean tumor volume change from day 1 to day 17 in drug treated mice (ΔT) versus vehicle treated mice, or as a T/T0, the percent reduction in the group mean tumor volume from day 1. […] Addition of COMPOUND B dosed twice daily at 3.5 mg/kg to the AEB071 regimen yielded a −22% T−T0 (p<0.001 median activity, but not significant compared to AEB071 alone). COMPOUND B had no activity in its own right with a T/C of 84%.
Mice were dosed for 21 days, then treatment ceased and tumor outgrowth was monitored. […] Tumor growth delay was not calculated because two or more tumors per group became static after an initial growth period, but the trend of tumor outgrowth rate indicated the AEB071 plus COMPOUND B combination tumors grew out slower than AEB071 single agent, COMPOUND B single agent treated tumors were not monitored due to lack of efficacy.
The effectiveness of the combination increased in a dose dependent manner, with increasing AEB071 dose in combination with COMPOUND B yielding a greater magnitude of response. AEB071 was administered at […] and 22.74 mg/kg, (equivalent to 80, 40 and 20 mg/kg free base) with three times daily dosing (TID) for 21 days in combination with COMPOUND B at 3.5 mg/kg with twice daily dosing in the 92.1 human uveal melanoma nude mouse xenograft model. Efficacy was determined from tumor growth inhibition on day 22. The activity was calculated at tumor/control (T/C), the percent mean tumor volume change from day 1 to day 22 in drug treated mice (ΔT) versus vehicle treated mice, or as a T/T0, the percent reduction in the group mean tumor volume from day 1. […]

[3] = tested on: OMM1 uveal melanoma cell line (GNA11 mutation); assay: Proliferation measurement by xCELLigence; type: cell-based; conditions: OMM1 cells, 0.5 μM per compound, 6 days
Method: (§1) 92.1 and OMM-1 uveal melanoma cell lines were cultured in Roswell Park Memorial Institute medium (RPMI 1640) (American Type Culture Collection (ATCC #30-2001)) supplemented with 10% fetal bovine serum and incubated at 37° C./5% carbon dioxide.
(§2) Compound stocks of 3-(1H-indol-3-yl)-4-[2-(4-methyl-piperazin-1-yl)-quinazolin-4-yl]-1H-pyrrole-2,5-dione, hereafter AEB071, and of 6-(4-bromo-2-fluorophenylamino)-7-fluoro-3-methyl-3H-benzoimidazole-5-carboxylic acid (2-hydroxyethoxy)-amide, hereafter COMPOUND B, were prepared in dimethylsulfoxide (DMSO) at a final concentration of 10 mM.
(§3) Growth of uveal cells was continuously monitored with the xCELLigence real-time cell analyzer. E-plates (Roche #05 232 368 001) were incubated with cells added at a final concentration of 3000 cells per 100 μl per well. Impedance was measured every 2 hours for 24 hours. […] Impedance was measured every 2 hours over 7 days. Data was normalized to day 0 prior to compound addition.
(§4) The effect of 3-(1H-indol-3-yl)-4-[2-(4-methyl-piperazin-1-yl)-quinazolin-4-yl]-1H-pyrrole-2,5-dione (COMPOUND A) and 6-(4-bromo-2-fluorophenylamino)-7-fluoro-3-methyl-3H-benzoimidazole-5-carboxylic acid (2-hydroxyethoxy)-amide (COMPOUND B) on uveal melanoma proliferation in vitro is shown (FIG. 1).

[4] = tested on: 92.1 uveal melanoma cell line (GNAQ mutation); assay: Proliferation measurement by xCELLigence; type: cell-based, human; conditions: 92.1 cells, 0.5 μM per compound, 6 days
Method: as §1, §2, §3, §4

pERK1/2 = assay: Protein immunoblot following drug treatment of uveal melanoma cell lines; type: cell-based, human; conditions: 92.1 and OMM-1 cells
Method: (§5) Uveal melanoma cells were incubated with 0.5 μM AEB071, 0.5 μM COMPOUND B, both compounds or DMSO alone. Cells were lysed after 2, 4, 8, 24 or 48 hours of treatment in M-PER mammalian protein extraction buffer containing PhosStop Phosphatase inhibitor cocktail tablet (Roche Diagnostics #04 906 837 001) and Complete Protease Inhibitor cocktail tablet (Roche Diagnostics #11 836 145 001). Proteins were separated on a 4-12% Bis-Tris NuPAGE SDS gel (Invitrogen #WG1403Bx10) and subsequently transferred to a nitrocellulose membrane using a dry blotting system (Invitrogen iBLOT). Proteins were detected with 1:1000 dilutions of anti-p44/42 MAPK (Cell Signaling Technologies #4377), anti-pMARCKS (Cell Signaling Technologies #2741), anti-pMEK1/2 (Cell Signaling Technologies #9121) and anti-Beta Actin (Ambion#AM4202). Beta actin was detected using the appropriate secondary antibody and an infrared dye detection system (Odyssey IRDye, LI-COR) according to the manufacturer's protocol. All other proteins were detected using an anti-rabbit-HRP secondary antibody and developed with SuperSignal West Dura Chemiluminescent Substrate (Thermo Scientific #34076) on a Syngene imaging system.
(§6) The biochemical effect of these agents was assessed following treatment with 0.5 μM AEBO071, 0.5 μM COMPOUND B or 0.5 μM of each agent together in the uveal melanoma cell lines 92.1 and OMM-1. The level of pMARCKS was attenuated (FIG. 3). […] The combination of AEB071 and COMPOUND B suppressed pathway components to a greater magnitude and duration compared to either single agent.

pMEK1/2 = assay: as above; type: cell-based, human; conditions: 92.1 and OMM-1 cells, 0.5 μM per agent, over time, clearly observed at 48 hours
Method: as §5, §6

| SMILES | anti-proliferative response in dose matrix [1] | inhibition at 0.16 µM [1] | level of pMARCKS (pMARCKS) | mean tumor response during the dosing period ([2]; 21 days dosing (FIG. 5)) | T/C (tumor/control) ([2]; AEB071 22.7 mg/kg (20 mg/kg free base) TID for 21 days, day 22, non-significant) | T/C (tumor/control) ([2]; AEB071 45.5 mg/kg (40 mg/kg free base) TID for 21 days, day 22, non-significant) | T/C (tumor/control) ([2]; AEB071 90.95 mg/kg (80 mg/kg free base) TID for 21 days, day 22, p<0.05) | T/C (tumor/control) ([2]; AEB071 (acetate salt) 91 mg/kg TID for 21 days, day 17, p<0.01) | tumor progression after the dosing period ([2]; two weeks following the 21 day dosing period, followed >70 days (FIG. 5)) | effect on growth of uveal melanoma cell line (xCELLigence) [3] | effect on growth of uveal melanoma cell line (xCELLigence) [4] | pERK1/2 levels (pERK1/2; 0.5 μM per agent, seen at 2 hrs, time course 2-48 hours) | pERK1/2 expression by 24 hours (pERK1/2; 0.5 μM, 24 hours) | pMEK1/2 expression (pMEK1/2) | T/C (tumor/control) ([2]; COMPOUND B 3.5 mg/kg twice daily, day 17) | T/C (tumor/control) ([2]; COMPOUND B 3.5 mg/kg twice daily, day 22) |
| --- | --- | --- | --- | --- | --- | --- | --- | --- | --- | --- | --- | --- | --- | --- | --- | --- |
| CN1CCN(c2nc(C3=C(c4c[nH]c5ccccc45)C(=O)NC3=O)c3ccccc3n2)CC1 [AEB071, 3-(1H-indol-3-yl)-4-[2-(4-methyl-piperazin-1-yl)-quinazolin-4-yl]-1H-pyrrole-2,5-dione] | active | 19% | attenuated | near complete mean tumor stasis | 92% | 52% | 18% | 3% | progressed at the control pace | delayed cell growth | delayed cell growth |  |  |  |  |  |
| Cn1cnc2c(F)c(Nc3ccc(Br)cc3F)c(C(=O)NOCCO)cc21 [COMPOUND B, 6-(4-bromo-2-fluorophenylamino)-7-fluoro-3-methyl-3H-benzoimidazole-5-carboxylic acid (2-hydroxyethoxy)-amide] | active | 57% |  |  |  |  |  |  |  | modest effect | modest effect | reduction in pERK1/2 levels | beginning to return | induction of pMEK1/2 expression | 84% | 56% |
